A word on the melting point: it is the temperature of the solid-liquid transition.

In turn, `Cc1cccc(-c2nc(-c3ccc(S(C)(=O)=O)cc3)sc2-c2ccnc(N3CCN(C)CC3)c2)c1` [H 37-5, 4 (3 methylphenyl)-5 [2-(4 methyl-1 piperazinyl)-4 pyridyl]-2 (4-methylsulfonylphenyl)-1,3 thiazole] registered a melting point of 153 to 154 °C.

As to `COc1ccc(-c2nc(NC(C)=O)sc2-c2ccnc(NC(C)=O)c2)cc1` [H 38, N-[5 (2 acetylamino-4 pyridyl)-4 (4 methoxyphenyl)-1,3-thiazol-2 yl]acetamide], the melting point was 262 to 264 °C. To `CC(=O)Nc1nc(-c2cccc(C)c2)c(-c2ccnc(C)c2)s1` [H 39, N-[4-(3-methylphenyl)-5-(2-methyl-4-pyridyl)-1,3-thiazol-2-yl]acetamide] belongs 230 to 231 °C; to `CC(=O)Nc1nc(-c2cc(C)cc(C)c2)c(-c2ccnc(C)c2)s1` [H 40-1, N-[4 (3,5 dimethylphenyl)-5 (2 methyl-4 pyridyl)-1,3 thiazol-2 yl]acetamide], 236 to 237 °C. With `CC(=O)Nc1nc(-c2cccc(C)c2)c(-c2cc(C)nc(C)c2)s1` [H 40-2, N-[5 (2,6 dimethyl-4-pyridyl)-4 (3 methylphenyl)-1,3 thiazol-2 yl]acetamide], the melting point was in the range of 185 to 187 °C. To `CC(=O)Nc1nc(-c2cc(C)cc(C)c2)c(-c2cc(C)nc(C)c2)s1` [H 40-3, N-[4 (3,5 dimethylphenyl)-5 (2,6 dimethyl-4 pyridyl)-1,3 thiazol-2 yl]acetamide] belongs 266 to 267 °C. As to `Cc1cccc(-c2nc(NC(=O)c3cccnc3)sc2-c2ccnc(C)c2)c1` [H 41, N-[4 (3 methylphenyl)-5 (2-methyl-4 pyridyl)-1,3 thiazol-2 yl]nicotinamide], the melting point is 175 to 178 °C.

`Cc1cc(C)cc(-c2nc(NC(=O)c3cccnc3)sc2-c2ccnc(C)c2)c1` [H 42-1, N-[4-(3,5-dimethylphenyl)-5-(2-methyl-4-pyridyl)-1,3-thiazol-2-yl]nicotinamide] registered a melting point of 203 to 206 °C. For `Cc1cc(C)cc(-c2nc(NC(=O)c3cccnc3)sc2-c2cc(C)nc(C)c2)c1` [H 42-2, N-[4 (3,5 dimethylphenyl)-5 (2,6 dimethyl-4 pyridyl)-1,3 thiazol-2 yl]nicotinamide] the value was 267 to 268 °C; for `Cc1cccc(-c2nc(NC(=O)c3cccnc3)sc2-c2ccnc(NC3CCCCC3)c2)c1` [H 42-3, N-[5 (2 cyclohexylamino-4-pyridyl)-4 (3 methylphenyl)-1,3 thiazol-2 yl]nicotinamide], 201 to 203 °C; for `Cc1cccc(-c2nc(NC(=O)c3cccnc3)sc2-c2ccnc(NC3CCCC3)c2)c1` [H 42-4, N-[5 (2 cyclopentylamino-4 pyridyl)-4 (3 methylphenyl)-1,3 thiazol-2 yl]nicotinamide], 215 to 216 °C.

`O=C(Nc1nc(-c2ccc(F)cc2)c(-c2ccnc(NC3CCCCC3)c2)s1)c1cccnc1` [H 42-5, N-[5 (2 cyclohexylamino-4-pyridyl)-4 (4 fluorophenyl)-1,3 thiazol-2 yl]nicotinamide] yielded a melting point of 136 to 138 °C. For `Cc1cccc(-c2nc(NC(=O)c3cccnc3)sc2-c2ccnc(F)c2)c1` [H 42-6, N-[5 (2 fluoro-4 pyridyl)-4 (3 methylphenyl)-1,3 thiazol-2 yl]nicotinamide] the value was 229 to 231 °C. `Cc1cc(-c2sc(NC(=O)c3cccnc3)nc2-c2ccc(F)cc2)ccn1` [H 42-7, N-[4 (4 fluorophenyl)-5-(2 methyl-4 pyridyl)-1,3 thiazol-2 yl]nicotinamide]: the melting point fell in the range of 261 to 262 °C. To `Cc1cccc(-c2nc(N(C)C(=O)c3cccnc3)sc2-c2ccnc(NC3CCCCC3)c2)c1` [H 42-8, N-[5 (2 cyclohexylamino-4-pyridyl)-4 (3 methylphenyl)-1,3 thiazol-2 yl]-N-methylnicotinamide] belongs 147 to 148 °C; to `Cc1cccc(-c2nc(N(C)C(=O)c3cccnc3)sc2-c2ccnc(NC3CCCC3)c2)c1` [H 42-9, N-[5 (2 cyclopentylamino-4 pyridyl)-4 (3 methylphenyl)-1,3 thiazol-2 yl]N-methylnicotinamide], 148 to 149 °C; to `Cc1cccc(-c2nc(NC(=O)c3ccc(Cl)nc3)sc2-c2ccnc(C)c2)c1` [H 43, 6 chloro-N-[4 (3-methylphenyl)-5 (2 methyl-4 pyridyl)-1,3 thiazol-2-yl]nicotinamide], 228 to 230 °C. For `Cc1cccc(-c2nc(NC(=O)c3ccc(Cl)nc3)sc2-c2ccnc(NC3CCCCC3)c2)c1` [H 44-1, 6 chloro-N-[5 (2-cyclohexylamino-4 pyridyl)-4 (3 methylphenyl)-1,3 thiazol-2-yl]nicotinamide] the value was 255 to 256 °C; for `Cc1cccc(-c2nc(NC(=O)c3ccc(Cl)nc3)sc2-c2ccnc(NC3CCCC3)c2)c1` [H 44-2, 6 chloro-N-[5 (2-cyclopentylamino-4 pyridyl)-4 (3 methylphenyl)-1,3 thiazol-2-yl]nicotinamide], 211 to 212 °C.

`Cc1cccc(-c2nc(N(C)C(=O)c3ccc(Cl)nc3)sc2-c2ccnc(NC3CCCCC3)c2)c1` [H 44-4, 6 chloro-N-[5 (2-cyclohexylamino-4 pyridyl)-4 (3 methylphenyl)-1,3 thiazol-2-yl]-N-methylnicotinamide] returned a melting point of 171 to 172 °C. In turn, `Cc1cccc(-c2nc(NC(=O)c3ccc(C)nc3)sc2-c2ccnc(C)c2)c1` [H 45, 6 methyl-N-[4 (3-methylphenyl)-5 (2 methyl-4 pyridyl)-1,3 thiazol-2-yl]nicotinamide] registered a melting point of 233 to 234 °C.

In the case of `Cc1cccc(-c2nc(NC(=O)c3ccc(C)nc3)sc2-c2ccnc(NC3CCCCC3)c2)c1` [H 46-1, N-[5 (2 cyclohexylamino-4-pyridyl)-4 (3 methylphenyl)-1,3 thiazol-2 yl]-6-methylnicotinamide], the melting point lay in the range of 242 to 243 °C. To `Cc1cccc(-c2nc(NC(=O)c3ccc(C)nc3)sc2-c2ccnc(NC3CCCC3)c2)c1` [H 46-2, N-[5 (2 cyclopentylamino-4 pyridyl)-4 (3 methylphenyl)-1,3 thiazol-2 yl]-6-methylnicotinamide] belongs 213 to 214 °C; to `COc1ccc(C(=O)Nc2nc(-c3cccc(C)c3)c(-c3ccnc(C)c3)s2)cn1` [H 47, 6 methoxy-N-[4 (3-methylphenyl)-5 (2 methyl-4 pyridyl)-1,3 thiazol-2-yl]nicotinamide], 224 to 226 °C; to `COc1ccc(C(=O)Nc2nc(-c3cccc(C)c3)c(-c3ccnc(NC4CCCCC4)c3)s2)cn1` [H 48-1, N-[5 (2 cyclohexylamino-4-pyridyl)-4 (3 methylphenyl)-1,3 thiazol-2 yl]-6-methoxynicotinamide], 191 to 192 °C. Compound `COc1ccc(C(=O)Nc2nc(-c3cccc(C)c3)c(-c3ccnc(NC4CCCC4)c3)s2)cn1` [H 48-2, N-[5 (2 cyclopentylamino-4 pyridyl)-4 (3 methylphenyl)-1,3-thiazol-2 yl]-6-methoxynicotinamide] displayed a melting point of 219 to 221 °C.

These data come from patent US20050080113A1, “Medicinal compositions” (priority 2001, published 2005).
